Laboratory results published in patent publication US20120283293A1, “Methods of neuroprotection involving Prostaglandin E2 EP4 (PGE2 EP4) receptor activation” (The Board of Trustees of the Leland Stanford Junior …, priority 2011, published 2012).

System: PKA activity in BV-2 cells
Assay: cAMP dependent protein kinase A (PKA) activity assay in BV-2 cells
Assay type: cell-based, murine
Details: H89 at 5 μM and 10 μM
Experimental: PKA activity was determined using the PKA kinase activity assay kit (Assay designs, Ann Arbor, Mich.). Cells were harvested 3 minutes after stimulation, and ELISA was carried out according to the manufacturer's instructions. Kinase activity was calculated as (sample absorbance—blank absorbance)/μg protein and normalized to the average value of vehicle.
Downstream signaling events for EP4, a […] receptor, were investigated in LPS treated BV-2 cells (see FIG. 3). […] The increase in PKA activity from EP4 receptor signaling was blocked with the PKA inhibitor H89 at doses of 5 μM and 10 μM (FIG. 3B).

Question: `O=S(=O)(NCCNC/C=C/c1ccc(Br)cc1)c1cccc2cnccc12` [H89] was tested. Which “AE1-329-mediated increase in PKA activity” value did it give?
Answer: Its value is “blocked”.
